In patent US20110178118A1, “PALONOSETRON FOR THE TREATMENT OF CHEMOTHERAPY INDUCED EMESES” (priority 2002, published 2011):
Marks after values point to notes of the source that are not given here.

System: cisplatin-induced emesis
Assay: Systemic exposure study: effects on cisplatin-induced emesis
Type: in vivo, dogs
Settings: 30 minutes prior to cisplatin, oral, table title says intravenous
Description: An experiment was conducted to study the relationship between plasma concentration of palonosetron and protection of dogs against cisplatin-induced emesis. Groups of dogs received oral doses of palonosetron (0, 100, 316, or 1000 μg/kg) or vehicle control 30 minutes prior to the injection of cisplatin.

Compound: Cl.O=C1c2cccc3c2[C@H](CCC3)CN1[C@@H]1CN2CCC1CC2 [Palonosetron, (3aS)-2,3,3a,4,5,6-Hexahydro-2-[(S)-1-Azabicyclo[2.2.2]oct-3-yl]2,3,3a,4,5,6-hexahydro-1-oxo-1Hbenz[de]isoquinoline hydrochloride]
- Emetic Episodes (mean ± SD) (palonosetron 100 μg/kg): 1.83 ± 1.60^b
- Emetic Episodes (mean ± SD) (palonosetron 316 μg/kg): 4.50 ± 6.83^b
- Emetic Episodes (mean ± SD) (palonosetron 1000 μg/kg): 5.67 ± 5.32^b
